According to US10039845B2, “Labeled inhibitors of prostate specific membrane antigen (PSMA) biological evaluation, and use of imaging agents” (THE JOHNS HOPKINS UNIVERSITY, priority 2007, dated 2018):

Assays:
PSMA = target: T1, PSMA (Homo sapiens, UniProt Q04609); assay: NAALADase assay (NAAG hydrolysis, LNCaP cell extracts); type: biochemical
T1 construct: LNCaP cell extracts were prepared by sonication in NAALADase buffer; endogenous in cells; host or cells: LNCaP cell extract (sonicated in 50 mM Tris pH 7.4, 0.5% Triton X-100)
Method: The relative binding affinities of L1-L7 and ReL1-ReL7, were determined using the N-acetylated-α-linked acidic dipeptidase (NAALADase) assay as previously described.
NAAG hydrolysis was performed essentially as described previously (Robinson, M. B.; et al. J Biol Chem 1987, 262, 14498-14506; Lupold, S. E.; et al. Cancer Res 2002, 62, 4029-4033.). In short, LNCaP cell extracts were prepared by sonication in NAALADase buffer [50 mM Tris (pH 7.4) and 0.5% Triton X-100]. Cell lysates were incubated with or without inhibitor at 37° C. for 10 minutes. Following the incubation the radiolabeled substrate N-acetyl-L-aspartyl-L-(3,4-^3H)glutamate (NEN Life Science Products, Boston, Mass.) was added to a final concentration of 30 nM at 37° C. for 10-15 min. The reaction was stopped by the addition of an equal volume of ice-cold 100 mM sodium phosphate and 2 mM EDTA. Products were partitioned by AG 1-X8 formate resin (Bio-Rad Laboratories) anion exchange chromatography, eluted with 1 M sodium formate, and quantified by liquid scintillation counting. […] Assays were performed in triplicate with the entire inhibition study being repeated at least once to confirm affinity and mode of inhibition. Data were collected during linear phase of hydrolysis (i.e., <20% cleavage of total substrate). Enzyme inhibitory constants (Ki values) were generated using the Cheng-Prusoff conversion (Cheng, Y.; Prusoff, W. H. Biochem Pharmcol 1973, 22, 3099-3108).

PSMA+ PC3 PIP cells = assay: In vitro fluorescence microscopy in PC3 PIP and PC3 flu cells; type: cell-based, human; conditions: excitation 494 nm, emission 628 nm, 1 h incubation
Method: Coordination of the bisquinoline moiety of L2 with Re(CO)3 renders this complex fluorescent. Accordingly, microscopy was performed using ReL2 in live cells (FIG. 2). […] The mechanism of internalization of PSMA has been studied previously, however only antibodies and antibody conjugates have been used, rather than small molecules (Rajasekaran, S. A.; et al. Mol Biol Cell 2003, 14, 4835-4845; Moffatt, S.; et al. Gene Ther 2006, 13, 761-772).
Following fresh preparation of ReL2, 10,000 PC3 PIP and PC3 flu cells were seeded separately into each of four wells of a Lab-Tek II 8-well chamber slide (Fisher Scientific). The cells were cultured as described above and were allowed to attach to the bottom of the wells overnight at 37° C. in 5% CO2 in air. […] The cells were then returned to the incubator for one hour to enable binding. Each well was then carefully washed by removing the supernatant followed by addition of warm culture media for 30 seconds. The wash media was then removed and added to the contents of the well chambers. Dako Cytomation mounting medium was then applied and a glass coverslip was added. The mounting medium was allowed to dry at ambient temperature for 20 min prior to storage of the slide at 4° C. overnight. The cells were then viewed using an Olympus BX61 fluorescence microscope equipped with a Semrock DAPI/FITC/Texas Red triple filter cube.

LNCaP (PSMA+) tumor = assay: In vivo binding specificity (blocking) study, SPECT-CT; parameters: species or system mice; conditions: LNCaP tumor bearing animal, PMPA 50 mg/kg (1 mg), images 30-60 min postinjection
Method: SPECT-CT imaging was then performed as described above, with both animals on the scanner gantry.

T1 sequence (Q04609 whole entry): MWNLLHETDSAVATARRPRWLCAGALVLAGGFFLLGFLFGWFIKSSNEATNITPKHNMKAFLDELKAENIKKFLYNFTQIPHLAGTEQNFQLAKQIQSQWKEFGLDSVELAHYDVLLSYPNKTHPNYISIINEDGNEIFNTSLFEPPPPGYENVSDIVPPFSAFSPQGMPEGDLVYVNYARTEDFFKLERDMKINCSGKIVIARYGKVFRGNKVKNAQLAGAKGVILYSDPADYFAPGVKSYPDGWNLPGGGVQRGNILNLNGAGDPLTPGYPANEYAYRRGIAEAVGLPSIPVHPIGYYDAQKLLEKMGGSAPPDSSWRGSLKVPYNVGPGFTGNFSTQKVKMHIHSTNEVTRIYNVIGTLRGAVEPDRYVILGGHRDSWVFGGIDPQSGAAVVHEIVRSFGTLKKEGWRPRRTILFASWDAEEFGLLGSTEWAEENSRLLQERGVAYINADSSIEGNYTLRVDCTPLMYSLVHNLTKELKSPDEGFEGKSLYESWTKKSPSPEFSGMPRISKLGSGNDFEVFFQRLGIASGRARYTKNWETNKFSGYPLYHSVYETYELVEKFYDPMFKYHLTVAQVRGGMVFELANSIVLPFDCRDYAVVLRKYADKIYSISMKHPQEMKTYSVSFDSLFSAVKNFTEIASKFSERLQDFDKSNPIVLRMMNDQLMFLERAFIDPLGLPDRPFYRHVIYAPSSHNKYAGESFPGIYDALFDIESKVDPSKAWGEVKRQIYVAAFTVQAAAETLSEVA

SMILES | Ki (PSMA; LNCaP cell extracts, Cheng-Prusoff conversion, read-out: Ki (PSMA inhibitory activity)) | fold higher PSMA inhibitory activity than ReL1 (PSMA; relative to ReL1) | fluorescent signal in live cells (internalization) (PSMA+ PC3 PIP cells) | blockade of [^99mTc]L1 binding to tumor and renal cortex (LNCaP (PSMA+) tumor)
O=C(O)CCC(NC(=O)NC(CCCCNC(=O)CCCCCCC(=O)NC(CCCCN(Cc1ccc2ccccc2n1)Cc1ccc2ccccc2n1)C(=O)O)C(=O)O)C(=O)O.[Br-].[C-]#[O+].[C-]#[O+].[C-]#[O+].[Re+] (stereo not drawn) [ReL2, Tricarbonyl(2-[3-(5-{7-[5-(bis-quinolin-2-ylmethyl-amino)-1-carboxy-pentylcarbamoyl]-heptanoylamino}-1-carboxy-pentyl)-ureido]-pentanedioic acid) rhenium bromide] | 0.5 nM | 20 fold | weak but observable fluorescent signal from within the PSMA+ PC3 PIP cells | –
O=C(O)CCC(CP(=O)(O)O)C(=O)O (stereo not shown) [PMPA, 2-(phosphonomethyl)pentanedioic acid] | – | – | – | capable of eliminating binding of [^99mTc]L1
